≈ marks a conversion by molar mass, not a printed value. Like-named read-outs stand apart in the source and are kept apart here.
Assays:
[1] = test system: E. coli (ATCC25922); assay: Broth microdilution assay, MIC; type: cell-based; details: Escherichia coli, ATCC25922, read-out: Minimum Inhibitory Concentration
[2] = test system: P. aeruginosa (ATCC 29853); assay: Broth microdilution assay, MIC/MBC; type: cell-based; details: for bactericidal or bacteriostatic effect / fold more efficient than amoxicillin: P. aeruginosa; for bactericidal or bacteriostatic effect: MBC/MIC ≤ 4 = bactericidal; for MBC / MIC: Pseudomonas aeruginosa; for fold more efficient than amoxicillin: from MICs
[3] = test system: S. aureus (ATCC 25923); assay: Broth microdilution assay, MIC; type: cell-based; details: Staphylococcus aureus, ATCC25923, read-out: Minimum Inhibitory Concentration
[4] = test system: B. subtilis (ATCC 9372); assay: Broth microdilution assay, MIC; type: cell-based; details: Bacillus subtilis, ATCC9372, read-out: Minimum Inhibitory Concentration
[5] = test system: C. albicans (ATCC 10231); assay: Broth microdilution assay, antifungal MIC/MFC; type: cell-based, Candida albicans; details: for ratio (MFC/MIC): C. albicans (ATCC 10231); for MFC / MIC: Candida albicans; for fungicidal or fungistatic behavior: C. albicans, MFC/MIC > 4 = fungistatic
[6] = test system: M. tuberculosis (RCMB 010126); assay: Microplate alamar blue assay; type: cell-based, Mycobacterium tuberculosis; details: Mycobacterium tuberculosis, RCMB010126, sensitive Mycobacterium tuberculosis (RCMB 010126), MABA
[7] = ATCC29853, read-out: Minimum Inhibitory Concentration
[8] = ATCC10231, read-out: Minimum Inhibitory Concentration

SMILES	MIC [1] [µg/mL]	ratio (MBC/MIC) ([2]; P. aeruginosa (ATCC 29853))	bactericidal or bacteriostatic effect [2]	MBC ([2]; ATCC29853) [µg/mL]	MIC ([2]; ATCC29853) [µg/mL]	MIC [2, 7] [µg/mL]	MIC [3] [µg/mL]	MIC [4] [µg/mL]	ratio (MFC/MIC) [5]	MFC ([5]; ATCC10231) [µg/mL]	MIC ([5]; ATCC10231) [µg/mL]	MIC [5, 8] [µg/mL]	MIC [6] [µg/mL]	Minimum Inhibitory Concentration ([2]; P. aeruginosa (ATCC 29853), Gram-negative, Table 1) [µg/mL]	fungicidal or fungistatic behavior [5]	fold more efficient than amoxicillin [2]
c1ccc(-c2csc(N3N=C(c4cccs4)CC3c3cccs3)n2)cc1 (centres unmarked) [4a, 4,5-Dihydro-1-(4-phenylthiazol-2-yl)-3,5-di(thiophen-2-yl)-1H-pyrazole]	125 (≈ 318 µM)	4	bactericidal	500 (≈ 1270 µM)	125 (≈ 318 µM)	125 (≈ 318 µM)	250 (≈ 635 µM)	15.6 (≈ 39.7 µM)	4	500 (≈ 1270 µM)	125 (≈ 318 µM)	125 (≈ 318 µM)	62.5 (≈ 159 µM)	–	–	–
CC1(C)S[C@@H]2[C@H](NC(=O)[C@H](N)c3ccc(O)cc3)C(=O)N2[C@H]1C(=O)O [amoxicillin, reference compound]	62.5 (≈ 171 µM)	>1	–	> 500	> 500	> 500	7.8 (≈ 21.3 µM)	31.2 (≈ 85.5 µM)	–	–	–	–	–	>500	–	–
Cc1csc(N2N=C(c3cccs3)CC2c2cccs2)n1 (centres unmarked) [3a, 4,5-Dihydro-1-(4-methylthiazol-2-yl)-3,5-di(thiophen-2-yl)-1H-pyrazole]	500 (≈ 1510 µM)	>1	–	> 500	> 500	> 500	250 (≈ 754 µM)	62.5 (≈ 189 µM)	>4	> 500	125 (≈ 377 µM)	125 (≈ 377 µM)	62.5 (≈ 189 µM)	–	fungistatic	–
COc1ccc(OC)c(C2CC(c3cccs3)=NN2C2=NC(=O)C(C)S2)c1 (centres unmarked) [7b, 2-(4,5-Dihydro-5-(2,5-dimethoxyphenyl)-3-(thiophen-2-yl)pyrazol-1-yl)-5-methylthiazol-4(5H)-one]	125 (≈ 311 µM)	2	bactericidal	250 (≈ 623 µM)	125 (≈ 311 µM)	125 (≈ 311 µM)	250 (≈ 623 µM)	125 (≈ 311 µM)	8	500 (≈ 1250 µM)	62.5 (≈ 156 µM)	62.5 (≈ 156 µM)	62.5 (≈ 156 µM)	–	fungistatic	–
O=C1CCSC(N2N=C(c3cccs3)CC2c2cccs2)=N1 (centres unmarked) [10a, 5,6-Dihydro-2-(4,5-dihydro-3,5-di(thiophen-2-yl)pyrazol-1-yl)-1,3-thiazin-4-one]	125 (≈ 360 µM)	4	bactericidal	125 (≈ 360 µM)	31.2 (≈ 89.9 µM)	31.2 (≈ 89.9 µM)	125 (≈ 360 µM)	62.5 (≈ 180 µM)	4	250 (≈ 719 µM)	62.5 (≈ 180 µM)	62.5 (≈ 180 µM)	31.2 (≈ 89.9 µM)	–	–	~16 fold
COc1ccc(OC)c(C2CC(c3cccs3)=NN2c2nc(C)cs2)c1 (centres unmarked) [3b, 4,5-Dihydro-5-(2,5-dimethoxyphenyl)-1-(4-methylthiazol-2-yl)-3-(thiophen-2-yl)-1H-pyrazole]	125 (≈ 324 µM)	8	–	125 (≈ 324 µM)	15.6 (≈ 40.5 µM)	15.6 (≈ 40.5 µM)	250 (≈ 648 µM)	125 (≈ 324 µM)	8	250 (≈ 648 µM)	31.2 (≈ 81.1 µM)	31.2 (≈ 81.1 µM)	7.81 (≈ 20.3 µM)	–	fungistatic	approximately 32 fold
COc1ccc(OC)c(C2CC(c3cccs3)=NN2C(N)=S)c1 (centres unmarked) [2b, 4,5-Dihydro-5-(2,5-dimethoxyphenyl)-3-(thiophen-2-yl)pyrazole-1-carbothioamide]	62.5 (≈ 180 µM)	8	–	500 (≈ 1440 µM)	62.2 (≈ 179 µM)	62.2 (≈ 179 µM)	250 (≈ 719 µM)	125 (≈ 360 µM)	4	250 (≈ 719 µM)	62.5 (≈ 180 µM)	62.5 (≈ 180 µM)	15.6 (≈ 44.9 µM)	–	–	–
O=C1CSC(N2N=C(c3cccs3)CC2c2cccs2)=N1 (centres unmarked) [6a, 2-(4,5-Dihydro-3,5-di(thiophen-2-yl)pyrazol-1-yl)thiazol-4(5H)-one]	125 (≈ 375 µM)	4	bactericidal	250 (≈ 750 µM)	62.5 (≈ 187 µM)	62.5 (≈ 187 µM)	250 (≈ 750 µM)	125 (≈ 375 µM)	4	250 (≈ 750 µM)	62.5 (≈ 187 µM)	62.5 (≈ 187 µM)	31.2 (≈ 93.7 µM)	–	–	–
NNC(=O)c1ccncc1 [isoniazid, reference compound]	–	–	–	–	–	–	–	–	–	–	–	–	0.12 (≈ 0.875 µM)	–	–	–
CC1SC(N2N=C(c3cccs3)CC2c2cccs2)=NC1=O (centres unmarked) [7a, 2-(4,5-Dihydro-3,5-di(thiophen-2-yl)pyrazol-1-yl)-5-methylthiazol-4(5H)-one]	125 (≈ 360 µM)	>1	–	> 500	> 500	> 500	> 500	125 (≈ 360 µM)	4	250 (≈ 719 µM)	62.5 (≈ 180 µM)	62.5 (≈ 180 µM)	62.5 (≈ 180 µM)	–	–	–
COc1ccc(C=C2SC(N3N=C(c4cccs4)CC3c3cccs3)=NC2=O)cc1 (centres unmarked) [8a, 5-(4-Methoxybenzylidene)-2-(4,5-dihydro-3,5-di(thiophen-2-yl)pyrazol-1-yl)thiazol-4(5H)-one]	125 (≈ 277 µM)	8	–	250 (≈ 554 µM)	31.2 (≈ 69.2 µM)	31.2 (≈ 69.2 µM)	250 (≈ 554 µM)	125 (≈ 277 µM)	2	125 (≈ 277 µM)	62.5 (≈ 138 µM)	62.5 (≈ 138 µM)	31.2 (≈ 69.2 µM)	–	–	~16 fold
COc1ccc(OC)c(C=C2SC(N3N=C(c4cccs4)CC3c3cc(OC)ccc3OC)=NC2=O)c1 (centres unmarked) [8d, 5-(2,5-Dimethoxybenzylidene)-2-(4,5-dihydro-5-(2,5-dimethoxyphenyl)-3-(thiophen-2-yl)pyrazol-1-yl)thiazol-4(5H)-one]	125 (≈ 233 µM)	2	bactericidal	125 (≈ 233 µM)	62.2 (≈ 116 µM)	62.2 (≈ 116 µM)	62.5 (≈ 117 µM)	125 (≈ 233 µM)	2	125 (≈ 233 µM)	62.5 (≈ 117 µM)	62.5 (≈ 117 µM)	31.2 (≈ 58.3 µM)	–	–	–
COc1ccc(OC)c(C2CC(c3cccs3)=NN2c2nc(-c3ccccc3)cs2)c1 (centres unmarked) [4b, 4,5-Dihydro-5-(2,5-dimethoxyphenyl)-1-(4-phenylthiazol-2-yl)-3-(thiophen-2-yl)-1H-pyrazole]	125 (≈ 279 µM)	16	–	250 (≈ 559 µM)	15.6 (≈ 34.9 µM)	15.6 (≈ 34.9 µM)	250 (≈ 559 µM)	250 (≈ 559 µM)	8	500 (≈ 1120 µM)	62.5 (≈ 140 µM)	62.5 (≈ 140 µM)	31.2 (≈ 69.8 µM)	–	fungistatic	approximately 32 fold
OC(Cn1cncn1)(Cn1cncn1)c1ccc(F)cc1F [fluconazole, reference compound]	–	–	–	–	–	–	–	–	1	250 (≈ 816 µM)	250 (≈ 816 µM)	250 (≈ 816 µM)	–	–	–	–

Source: article PMC10600881 (ACS Omega, 2023)
